This is an account of results in patent US20230303481A1, “LONG-ACTING LOW-ADDICTION HNK DERIVATIVE AND PREPARATION METHOD THEREFOR” (SHENZHEN RUIJIAN BIOTECHNOLOGY CO., LTD, priority 2020, published 2023).

For data set [1], the system named is mice. As to the kind of experiment: Forced swimming test (FST), immobility time. To be noted: for course of antidepressant efficacy within 7 days: 1 hour to 7 days; for antidepressant effect: dose not given. Format: in vivo. The procedure:
One hour before the forced swimming test (FST), the mice were transferred to the laboratory. The test was conducted under normal light condition and monitored by a digital camera. During the test, the mice were individually placed in transparent glass cylinders (28.5 cm in height, 14 cm in diameter) filled with 20 cm height of water (23±1° C.). On the first day, the mice were trained for 6 minutes and then removed from the cylinder. On the second day, the mice were administered saline, HNK, Compound I5, Compound C, and Compound D, and after different time periods, their immobility time was tested. During the last 4 minutes of the entire 6-minute swimming test, the static time was recorded through EthoVision XT (Noldus, Netherlands) of Noldus system. The static time was defined as passive floating, that is there was no other movement except the movements necessary to keep the animal’s head above the water. After every two to three tests, the water in the cylinders was replaced. After the swimming test, the mice were removed from the water and dried under an infrared lamp.
The mice were given 1 mg (A), 10 mg (B) and 30 mg (C) of HNK and Compund I5 by intragastric administration, respectively, and their immobility time was measured after 1 hour and 7 days. The percentage of immobility time is expressed as mean ± SEM. *p<0.05, **p<0.01, compared to base test. Mice of each group was N=8. Saline: saline group; I5: Compound I5 treatment group; HNK: 2R,6R-hydroxynorketamine treatment group.

Data set [2] relates to mice. As to the kind of experiment: Behavioral sensitization experiment (spontaneous activity measurement). As to conditions: 5 mg, 10 mg, 30 mg intragastric once a day for 7 days, 7 days withdrawal, challenge on day 15. The data set is classed as in vivo, Male C57BL/6J mice. As to the method: (§1) Animals: Male C57BL/6J mice of 8-12 weeks old were randomly divided into groups, 10 mice in each group, with body weight of 18-22 g, fed at room temperature (22±1° C.), under humidity of (50±10)%, illumination time from 8:00 to20:00. The mice had free access to food and water, and adapted to the experimental environment for at least 2-3 days before the experiments. All experiments were conducted from 8:00 to 16:00.
1.1 Small animal spontaneous activity measurement: An animal spontaneous activity infrared analysis system consists of a spontaneous activity box, an infrared probe device and a data acquisition system. The size of the spontaneous activity box is 40 cm × 40 cm × 65 cm, with sound isolation and light isolation, and mounted with a ventilation device. The activity statuses of the animals were recorded by the infrared probe, and the numbers of spontaneous activities of the animals were calculated. In order to test the effect of drugs on spontaneous activities of mice, the mice were randomly divided into 4 groups with 10 mice in each group. The Groups included: vehicle, I5, C, D (5.0, 10.0, 30.0 mg/kg), mor (10 mg/kg). The mice were administrated intragastrically once a day in the morning for 7 consecutive days; after that, the drugs withdrew for 7 days (without any treatment). On the 15th day, mice in each group were given Veh and the drugs (5.0, 10.0, 30.0 mg/kg) by intragastric administration to stimulate. Spontaneous activity of the mice within 1 hour was measured immediately after administration at d1, d7 and d15.
Statistical analysis: Experimental data were expressed as X±SEM. Graphpad software was used for statistical analysis, and t-test was used for comparison between two groups. One-way ANOVA analysis was used for comparison among multiple groups, and then LSD method was used for pairwise comparison.

Data set [3] relates to mice. In words: Position preference (CPP) experiment, three-room system. The data set is classed as in vivo, Male C57BL/6J mice. To be noted: 5 mg, 10 mg, 30 mg intragastric, 6 days training, residence time in white box within 15 min. As to the method: as §1
1.2 CPP experiment: A three-room CPP system includes black and white boxes (25 cm × 25 cm × 30 cm) at left and right sides, separated by a middle box (10 cm × 25 cm × 30 cm). During the experiment, mice were put into the middle box and could freely move to the black and white boxes. A door with the size of 5 cm × 5 cm was arranged between the middle box and each of the black and white boxes. The experiment adopted a biased procedure, which had three stages of pre-test, training, and test stages. During the whole experiment, the environmental conditions such as light, color and smell in the boxes were guaranteed to be consistent.
Pre-test stage: On days 1-3, the spacer plates between the boxes were removed, and all mice were put into the middle box after being injected with saline subcutaneously, allowing them to move freely in the boxes for 15 min, once a day for 3 consecutive days. The residence time of the mice in the black and white boxes was respectively recorded to determine the natural preference of the mice. The mice were trained with the non-natural preference box as the companion medicine box. […]
Test stage: on day 10, the spacer plates were removed, and the mice were put into the middle box allowing to move freely. At the same time, the residence time of the mice in the white box within 15 min were recorded.
Statistical analysis: Experimental data were expressed as X±SEM. […]
Position preference was tested by a three-room system. […] After continuous training for 6 days, the test was carried out, and the residence times of the mice within 15 min in the white box were recorded. […]

Data set [4] can be described thus: Applicant's experimental studies on addiction of HNK (general statement). Format: in vivo.
Where [5] appears, read: mice, 1 mg intragastric, measured after 1 hour and 7 days.

“Also recorded” adds a separate entry of the source. Where a name gives a salt, the structure may show the parent alone.

Turning to `CN(C)c1ccc(C(=O)O[C@@H]2CCC[C@@](N)(c3ccccc3Cl)C2=O)cc1` [Compound I5, (2R, 6R)-6-p-dimethylaminobenzoyloxydemethylketamine dihydrochloride], the “antidepressant effect (immobility time, forced swimming)” value with mice [1] (setting [5]) was “no antidepressant effect”; with mice [1] (mice, 10 mg intragastric), “had antidepressant effect”; in the data set with mice [1] (mice, 30 mg) it was “had antidepressant effect”. Moreover, the “course of antidepressant efficacy within 7 days” value with mice [1] (mice, 10 mg intragastric) is listed as “substantially did not decrease within 7 days”; in the data set on mice [1] (mice, 30 mg intragastric), “substantially did not decrease within 7 days”. Also, the “antidepressant effect at the 7th day after administration (reduction in immobility time)” value in the data set with mice [1] (mice, compared with HNK-treated group, 10 mg and 30 mg groups) was “significant antidepressant effect”. The “behavioral sensitization effect on mice” value in the data set with mice [2] (dihydrochloride) is recorded as “no behavioral sensitization effect; also recorded: non-sensitization effect”. Also, the “position preference effect on mice” value with mice [3] (dihydrochloride) was “no position preference effect; also recorded: non-position preference effect”.

As for `CN[C@@]1(c2ccccc2Cl)CCC[C@@H](OC(=O)c2ccccc2)C1=O` [Compound C], in the data set with mice [1] (mice, 30 mg), the “antidepressant effect (immobility time, forced swimming)” value is “no antidepressant effect”. For the same compound, the antidepressant effect entry in the data set with mice [1] (mice) is “no antidepressant effect”. In addition, in the data set with mice [2], the “behavioral sensitization effect on mice” value is “behavioral sensitizing effect; also recorded: behavioral sensitization effect”. Besides, in the data set on mice [3], the “position preference effect on mice” value was “induced position preference”.

For the compound `N[C@]1(c2ccccc2Cl)CCC[C@H](OC(=O)c2ccc(CN3CCOCC3)cc2)C1=O` [Compound D], the “antidepressant effect (immobility time, forced swimming)” value with mice [1] (mice, 30 mg) is recorded as “no antidepressant effect”. For the same compound, in the data set on mice [1] (mice), the antidepressant effect entry is “no antidepressant effect”. In the data set on mice [2], the “behavioral sensitization effect on mice” value was “behavioral sensitizing effect; also recorded: behavioral sensitization effect”. Moreover, the “position preference effect on mice” value with mice [3] is “induced position preference”.

As to `N[C@@]1(c2ccccc2Cl)CCC[C@@H](O)C1=O` [HNK, (2R,6R)-6-hydroxydemethylketamine, reference compound], in the data set with mice [1] (general statement), the “duration of efficacy after administration” value is on record as “basically lost activity within one week”. Besides, the “antidepressant effect (immobility time, forced swimming)” value in the data set on mice [1] (setting [5]) is listed as “no antidepressant effect”; in the data set on mice [1] (mice, 10 mg intragastric) it was “had antidepressant effect”; in the data set on mice [1] (mice, 30 mg), “had antidepressant effect”. Moreover, the “course of antidepressant efficacy within 7 days” value was “decreased rapidly within 7 days, and substantially had no effect on the 7th day” with mice [1] (mice, 10 mg intragastric); “decayed rapidly within 7 days, and substantially had no effect on the 7th day” with mice [1] (mice, 30 mg intragastric). In addition, the addiction entry in data set [4] was “a certain degree of addiction”.
